These results are taken from paper PMC5391968, “Comparison of cell-based assays for the identification and evaluation of competitive CXCR4 inhibitors” (PLoS ONE, 2017).

Test [1] relates to HIV-1 NL4-3 (X4). The test is described as follows: microbe, parasite or virus in culture. Type of test: cell-based. As to the method: PHA-stimulated PBMCs at 5x10^5 cells per sample, pre-incubated with test compounds dissolved in cell culture medium containing IL-2 (2 ng/ml; […] After three days, fresh culture medium with IL-2 was added. Ten days post infection cell supernatant was collected for HIV-1 p24 core antigen enzyme-linked immunosorbent assay (ELISA; Perkin Elmer, Boston, MA, USA) according to the manufacturer’s protocol. In the antiviral assays, each condition was tested in duplicate.

The subject of test [2] is HIV-1 NL4-3 (X4). The test is described as follows: microbe, parasite or virus in culture. Type of test: cell-based. As to the method: The anti-HIV replication assays in MT-4 cells and PHA-stimulated PBMCs have been described previously. The HIV-1 T-tropic molecular clone NL4-3 (X4) was obtained from the National Institute of Allergy and Infectious Disease (NIAID) AIDS reagent program (Bethesda, MD, USA). Briefly, 5x10^4 MT-4 cells (in cell culture medium) were treated with different concentrations of compound at 37°C for 30 minutes. Afterwards, a 50% tissue culture infectious dose of the NL4-3 viral stock was added to the cell-compound mixtures. Four days post infection, the cytopathic effect was evaluated microscopically and cell viability was assessed with the MTS method, as described above.
In the antiviral assays, each condition was tested in duplicate.
The source holds these as a separate data set.

For test [3], the target named is T1, CXCR4 (Homo sapiens, UniProt P61073). The test is described as follows: CXCR4 internalization assay in SUP-T1 cells. Type of test: cell-based. Also noted: CXCR4 receptors endogenously expressed on SUP-T1 cells; endogenous in cells; host or cells: SUP-T1 (ATCC). The following applies: for induction of CXCR4 internalization (agonistic effect): in absence of CXCL12, data not shown; for IC50: SUP-T1 cells, 6.25 nM CXCL12, 37°C 30 minutes, mean ± SEM. As to the method: T-lymphoblastic SUP-T1 cells were washed twice in DPBS containing 2% FBS. Afterwards, cells were first incubated with the PE-labeled rat anti-human CXCR4 mAb (clone 1D9; 2 μg/ml in DPBS/2% FBS; BD Pharmingen) on ice for 45 minutes. […] SUP-T1 cells were subsequently washed once with ice cold DPBS and twice with ice cold assay buffer (see above) before being treated with test compound on ice for 15 minutes. […] Samples were immediately analyzed with the FACSCalibur flow cytometer (Becton Dickinson) whereby the measured fluorescence corresponds to the amount of […] CXCR4 receptors. Data were further analyzed with the FlowJo software.

Test [4] has as its system CXCR4-positive Jurkat cells. In words: cells. The test is classed as cell-based, human. As to the method: Jurkat cells were washed twice in assay buffer (see above), dispensed into a 96-well plate (5x10^5 cells per well) containing serial dilutions of compounds (in assay buffer) and incubated at RT in the dark for 10 minutes. […] Suspensions of 1.87x10^4 cells were transferred to the chemotaxis insert plate. […] After removal of the insert plate, migrated cells were centrifuged and resuspended in DPBS containing flow cytometry cell counting beads ([…] Fluorescent Particles; Gentaur, London, UK). Both migrated cells and particles were counted by flow cytometry (FACSCanto II; Becton Dickinson). Each compound concentration was tested in triplicate. Data were analyzed using the FlowJo software and the total number of migrated cells was calculated, according to the counted and total number of beads present in the sample.

Test [5] deals with T1, CXCR4. In words: CXCL12^AF647 binding assay on Jurkat cells. The following applies: Jurkat cells, 2.9 nM CXCL12^AF647, mean ± SEM; read-out: IC50 CXCL12-CXCR4 binding interaction. As for the experimental part:
In brief, Jurkat cells were washed twice in assay buffer [Hank’s Balanced Salt Solution (HBSS; Thermo Fisher Scientific), 20 mM HEPES buffer (Thermo Fisher Scientific), 0.2% bovine serum albumin (Sigma-Aldrich), pH 7.4]. […] Afterwards, cells were washed twice in assay buffer and subsequently fixed in 1% paraformaldehyde in Dulbecco’s phosphate buffered saline (DPBS). Samples were analyzed with the FACSArray flow cytometer (Becton Dickinson, NJ, USA). Data were further analyzed with the FlowJo Software (Ashland, Oregon, USA).

Test [6] deals with T1, CXCR4. The test is described as follows: Calcium mobilization assay (FLIPR Tetra) in U87.CD4.CXCR4 cells. The test is classed as cell-based. Particulars: for IC50: 6.25 nM CXCL12, mean ± SEM, read-out: IC50 Calcium signaling (CXCL12-induced); for agonist activity on intracellular calcium flux: in absence of CXCL12. As for the experimental part:
U87.CD4.CXCR4 cells were seeded at 2x10^4 cells per well in gelatin-coated black-walled 96-well plates [0.1% gelatin in DPBS, incubated at RT for two hours and washed once with DPBS] and incubated at 37°C and 5% CO2 overnight. […] Fluo-2 AM loaded cells were washed with assay buffer before being incubated in the FLIPR Tetra system at 37°C for five minutes. At the start of the kinetic measurement, compounds were added to the cell plate by the internal robotic system followed by an incubation period of 10 minutes during which changes in the intracellular calcium level were continuously measured by the FLIPR Tetra. […] Each condition was measured in triplicate and repeated several times as further indicated (see Results).
A general note: Calcium flux is commonly read through the fluorescence of an indicator in the cells.

A further test addresses T2, CXCR7 (Homo sapiens, UniProt P25106).
T2 construct: expressed in transfected cells; host or cells: U87.CD4 cells transfected with pTEJ-8 plasmid carrying human CXCR7 cDNA
The test is described as follows: CXCL12 binding on CXCR7-transfected U87 cells (U87.CD4.CXCR7). Particulars: data not shown.

[7] abbreviates: PHA-stimulated PBMCs, ten days post infection, p24 Ag ELISA, mean ± SEM, read-out: IC50 HIV-1 (X4) NL4-3 replication, PHA-stimulated PBMCs.
Where [8] appears, read: MT-4 cells, four days post infection, MTS, mean ± SEM, read-out: IC50 HIV-1 (X4) NL4-3 replication, MT-4 cells.
Setting [9] is: Jurkat cells, 6.25 nM CXCL12, two hours, mean ± SEM, read-out: IC50 Chemotaxis.
The mark [10] stands for this setting: Human immunodeficiency virus 1, NL43, PBMC, 240 h, PHA-stimulated PBMCs, ten days post infection, p24 Ag ELISA, mean ± SEM, read-out: IC50 HIV-1 (X4) NL4-3 replication, PHA-stimulated PBMCs.
[11] abbreviates: Human immunodeficiency virus 1, NL43, MT4, 96 h, MT-4 cells, four days post infection, MTS, mean ± SEM, read-out: IC50 HIV-1 (X4) NL4-3 replication, MT-4 cells.
The mark [12] stands for this setting: Homo sapiens, Jurkat, 2 h, read-out: IC50 Chemotaxis.

Like-named read-outs stand apart in the source and are kept apart here. Where a SMILES comes first, the peptide text is derived from it. Bridges are numbered along the chain shown (N, C = ends). Where no end group is shown, it is not given here. [ ]: non-standard residue; d: D form. 2Nal = N[C@@H](Cc1ccc2ccccc2c1)C(=O)O; Cit = NC(=O)NCCC[C@H](N)C(=O)O

T1 sequence (P61073 whole entry): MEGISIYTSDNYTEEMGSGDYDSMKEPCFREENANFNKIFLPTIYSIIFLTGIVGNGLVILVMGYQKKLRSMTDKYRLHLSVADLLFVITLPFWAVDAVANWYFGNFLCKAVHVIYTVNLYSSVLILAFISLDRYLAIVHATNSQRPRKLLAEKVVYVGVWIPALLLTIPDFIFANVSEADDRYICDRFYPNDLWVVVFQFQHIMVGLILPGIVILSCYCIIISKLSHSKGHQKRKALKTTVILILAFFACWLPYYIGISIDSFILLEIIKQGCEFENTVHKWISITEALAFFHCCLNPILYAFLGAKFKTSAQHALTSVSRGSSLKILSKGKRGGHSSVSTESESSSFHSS
T2 sequence (P25106 whole entry): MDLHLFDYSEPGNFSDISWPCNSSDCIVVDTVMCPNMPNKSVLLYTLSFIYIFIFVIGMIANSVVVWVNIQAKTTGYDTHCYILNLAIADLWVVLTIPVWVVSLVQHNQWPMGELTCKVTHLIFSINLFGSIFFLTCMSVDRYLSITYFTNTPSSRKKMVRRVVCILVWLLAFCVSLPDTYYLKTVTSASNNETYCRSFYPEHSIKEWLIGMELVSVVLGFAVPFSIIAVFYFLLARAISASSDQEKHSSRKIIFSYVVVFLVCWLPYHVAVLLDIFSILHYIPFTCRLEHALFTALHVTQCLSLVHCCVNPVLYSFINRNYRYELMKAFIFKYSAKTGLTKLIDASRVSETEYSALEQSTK

Turning to `N=C(N)NCCC[C@H](NC(=O)[C@@H]1CSSC[C@H](NC(=O)[C@H](Cc2ccc3ccccc3c2)NC(=O)[C@H](CCCNC(=N)N)NC(=O)[C@@H](N)CCCNC(=N)N)C(=O)N[C@@H](Cc2ccc(O)cc2)C(=O)N[C@@H](CCCNC(=N)N)C(=O)N[C@@H](CCCCN)C(=O)N[C@H](CCCCN)C(=O)N2CCC[C@H]2C(=O)N[C@@H](Cc2ccc(O)cc2)C(=O)N[C@@H](CCCNC(=N)N)C(=O)N[C@@H](CCCNC(N)=O)C(=O)N1)C(=O)O` [T140] (H-RR[2Nal]CYRK[dK]PYR[Cit]CR-OH; disulfide 4-13 (inferred); N-terminus and C-terminus assumed), the 50% inhibitory concentration (IC50) (in general, the concentration at which inhibition is half-maximal) in the test on HIV-1 NL4-3 (X4) [1] (NL4-3 (X4)) came out at 0.0104 ± 0.0048 µM; in the test with HIV-1 NL4-3 (X4) [2] (NL4-3 (X4)) it was 0.0135 ± 0.0071 µM; in test [4] it was 0.0737 ± 0.026 µM. Moreover, the “induction of CXCR4 internalization (agonistic effect)” value (from here on “induction of CXCR4 internalization”) at CXCR4 [3] (50 μM) was “absence of an agonistic effect”.

As for `CC1(C)CN2C(CSC(=NC3CCCCC3)NC3CCCCC3)=CSC2=N1` [IT1t], the results for the IC50 (in the test on HIV-1 NL4-3 (X4) [1] (setting [7]); with HIV-1 NL4-3 (X4) [2] (setting [8]); in test [4] (setting [9])) were 0.019 ± 0.0023 µM, 0.0142 ± 0.0053 µM and 0.0791 ± 0.0096 µM, respectively.

With `c1cc(CN2CCCNCCNCCCNCC2)ccc1CN1CCCNCCNCCCNCC1` [AMD3100], the figures for the 50% inhibitory concentration (IC50) (with HIV-1 NL4-3 (X4) [1] (setting [10]); in the test on HIV-1 NL4-3 (X4) [2] (setting [11]); in test [4] (setting [12])) were 0.0149 ± 0.0032 µM, 0.0118 ± 0.0034 µM and 1.43 µM, respectively. Further, the “induction of CXCR4 internalization” value at CXCR4 [3] (50 μM) is on record as “absence of an agonistic effect”.

Regarding `c1ccc(CNCc2ccc(CN3CCCNCCNCCCNCC3)cc2)nc1` [AMD3465], the concentration for half-maximal inhibition (IC50) in the test on HIV-1 NL4-3 (X4) [1] (setting [7]) is 0.0272 ± 0.0087 µM; with HIV-1 NL4-3 (X4) [2] (setting [8]), 0.0218 ± 0.0101 µM; at CXCR4 [3], 0.0673 ± 0.0113 µM; in test [4] (setting [9]), 0.116 ± 0.0152 µM; on CXCR4 [5] it was 0.0021 ± 0.00024 µM; on CXCR4 [6] (U87.CD4.CXCR4 cells) it was 0.0534 ± 0.0243 µM. For the same compound, at CXCR4 [3] (50 μM), the “induction of CXCR4 internalization” value was “absence of an agonistic effect”.

On to `NCCCCN(Cc1nc2ccccc2[nH]1)[C@H]1CCCc2cccnc21` [AMD11070], for which the IC50 was determined as 0.0264 ± 0.0061 µM in the test with HIV-1 NL4-3 (X4) [1] (setting [10]), 0.0119 ± 0.0046 µM in the test with HIV-1 NL4-3 (X4) [2] (setting [11]) and 0.0749 ± 0.0177 µM in test [4] (setting [12]). The “inhibition of CXCL12 binding on CXCR7” value at CXCR7 is on record as “reduced CXCL12 binding on CXCR7 in the lower micromolar range”. On CXCR4 [3] (50 μM), the “induction of CXCR4 internalization” value is on record as “absence of an agonistic effect”.

For the compound `CN(C)CCN(CCN(C)C)CCN(C)C` [Me6TREN], the IC50 in the test with HIV-1 NL4-3 (X4) [1] (setting [7]) is > 100 µM; with HIV-1 NL4-3 (X4) [2] (setting [8]), > 100 µM; on CXCR4 [3] it was > 100 µM; in test [4] (setting [9]) it was > 100 µM; at CXCR4 [5], 51.9 µM; on CXCR4 [6] (U87.CD4.CXCR4 cells), > 100 µM. In addition, the “induction of CXCR4 internalization” value at CXCR4 [3] (100 μM) is given as “absence of an agonistic effect”.

For the compound `N=C(N)NCCC[C@H](NC(=O)[C@@H]1CSSC[C@H](NC(=O)[C@H](Cc2ccc3ccccc3c2)NC(=O)[C@H](CCCNC(=N)N)NC(=O)[C@@H](N)CCCNC(=N)N)C(=O)N[C@@H](Cc2ccc(O)cc2)C(=O)N[C@@H](CCCNC(N)=O)C(=O)N[C@@H](CCCCN)C(=O)N[C@H](CCCNC(N)=O)C(=O)N2CCC[C@H]2C(=O)N[C@@H](Cc2ccc(O)cc2)C(=O)N[C@@H](CCCNC(=N)N)C(=O)N[C@@H](CCCNC(N)=O)C(=O)N1)C(N)=O` [TC14012], the half-inhibitory concentration (IC50) in the test on HIV-1 NL4-3 (X4) [1] (NL4-3 (X4)) stood at 0.0093 ± 0.004 µM; in the test on HIV-1 NL4-3 (X4) [2] (NL4-3 (X4)), 0.0072 ± 0.0023 µM. Also, the “inhibition of CXCL12 binding on CXCR7” value on CXCR7 is “reduced CXCL12 binding on CXCR7 in the lower micromolar range”. Besides, the “induction of CXCR4 internalization” value at CXCR4 [3] (50 μM) is recorded as “absence of an agonistic effect”. Besides, the inhibition of migration result in test [4] (pretreated at concentrations as low as 200 nM) is reported as “total inhibition of migration”.

`N=C(N)NCCC[C@H](NC(=O)[C@@H]1CSSC[C@H](NC(=O)[C@H](Cc2c[nH]c3ccccc23)NC(=O)[C@H](CCCNC(=N)N)NC(=O)[C@@H](N)CCCNC(=N)N)C(=O)N[C@@H](Cc2ccc(O)cc2)C(=O)N[C@@H](CCCNC(=N)N)C(=O)N[C@@H](CCCCN)C(=O)N[C@H]2CSSC[C@H](NC(=O)[C@H](Cc3ccc(O)cc3)NC(=O)CNC(=O)[C@H](CCCCN)NC(=O)[C@H](Cc3ccc(O)cc3)NC2=O)C(=O)N[C@@H](Cc2ccc(O)cc2)C(=O)N[C@@H](CCCNC(=N)N)C(=O)N[C@@H](CCCCN)C(=O)N1)C(N)=O` [T22, (Tyr^5.12,Lys^7)-Polyphemusin II] (H-RRWCYRKCYKGYCYRKCR-NH2; disulfide 4-17, 8-13 (inferred); N-terminus and C-terminus assumed): the “induction of CXCR4 internalization” value on CXCR4 [3] (50 μM) is listed as “absence of an agonistic effect”.

On to KGVSLSYRKRYSLSVGK-NH2 [CTCE-9908], for which the “induction of CXCR4 internalization” value at CXCR4 [3] (100 μM) is recorded as “absence of an agonistic effect”. Further, the “agonist activity on intracellular calcium flux” value at CXCR4 [6] (20 μM) is on record as “this activity was lost”; at CXCR4 [6] (100 μM) it was “very weak agonist activity”.

Regarding “CXCL12: Recombinant human CXCL12, endogenous chemokine ligand of CXCR4”, in the test with CXCR4 [6] (U87.CD4.CXCR4 cells, CXCL12 alone, read-out: EC90 increase of the calcium concentration), the EC90 was 0.0109 µM.
